The supplement of paper PMC10307832

Assays:
Assay in all cases: relative viability (nuclei count vs DMSO), 5 days (fraction); higher = more cells survive
AZ505 + OSI-027 = compound: C1CCC(CC1)N(CCNCCC2=C3C(=C(C=C2)O)NC(=O)CO3)C(=O)CCNCCC4=CC(=C(C=C4)Cl)Cl [AZ505] + COc1cccc2cc(-c3nc([C@H]4CC[C@H](C(=O)O)CC4)n4ncnc(N)c34)[nH]c12 [OSI-027] (partner 0.5 µM)
Summary of the method: (§1)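 Lung cancer cell lines were seeded in 1536-well plates and dosed by pin tool the next day, with either a single drug or a fixed anchor-drug dose combined with five library-drug doses (not always all listed) spaced in √10 steps. Five days later, one step fixed the cells and stained their nuclei (final 0.05% Triton X-100, 1% formaldehyde, 1 ug/ml Hoechst), and nuclei were counted on 4× images. Relative viability is the nuclei count in treated wells divided by the count in vehicle wells, and each value is the median of duplicate plates.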

AZ505 + Tozasertib = compound: C1CCC(CC1)N(CCNCCC2=C3C(=C(C=C2)O)NC(=O)CO3)C(=O)CCNCCC4=CC(=C(C=C4)Cl)Cl [AZ505] + Cc1cc(Nc2cc(N3CCN(C)CC3)nc(Sc3ccc(NC(=O)C4CC4)cc3)n2)n[nH]1 [Tozasertib] (partner 0.1 µM)
Summary of the method: as §1

AZ505 + AZD7762 = compound: C1CCC(CC1)N(CCNCCC2=C3C(=C(C=C2)O)NC(=O)CO3)C(=O)CCNCCC4=CC(=C(C=C4)Cl)Cl [AZ505] + NC(=O)Nc1cc(-c2cccc(F)c2)sc1C(=O)N[C@H]1CCCNC1 [AZD7762] (partner 0.2 µM)
Summary of the method: as §1

Dactolisib + Alpelisib = compound: Cn1c(=O)n(-c2ccc(C(C)(C)C#N)cc2)c2c3cc(-c4cnc5ccccc5c4)ccc3ncc21 [Dactolisib] + Cc1nc(NC(=O)N2CCC[C@H]2C(N)=O)sc1-c1ccnc(C(C)(C)C(F)(F)F)c1 [Alpelisib] (partner 2 µM)
Summary of the method: as §1

Cell Line	relative viability (AZ505 + OSI-027; first compound 0.08 µM)	relative viability (AZ505 + OSI-027; first compound 0.253 µM)	relative viability (AZ505 + OSI-027; first compound 0.8 µM)	relative viability (AZ505 + OSI-027; first compound 2.53 µM)	relative viability (AZ505 + OSI-027; first compound 8 µM)	relative viability (AZ505 + Tozasertib; first compound 0.08 µM)	relative viability (AZ505 + Tozasertib; first compound 0.253 µM)	relative viability (AZ505 + Tozasertib; first compound 0.8 µM)	relative viability (AZ505 + Tozasertib; first compound 2.53 µM)	relative viability (AZ505 + Tozasertib; first compound 8 µM)	relative viability (AZ505 + AZD7762; first compound 0.08 µM)	relative viability (AZ505 + AZD7762; first compound 0.253 µM)	relative viability (AZ505 + AZD7762; first compound 0.8 µM)	relative viability (AZ505 + AZD7762; first compound 2.53 µM)	relative viability (AZ505 + AZD7762; first compound 8 µM)	relative viability (Dactolisib + Alpelisib; first compound 0.002 µM)	relative viability (Dactolisib + Alpelisib; first compound 0.006325 µM)	relative viability (Dactolisib + Alpelisib; first compound 0.02 µM)	relative viability (Dactolisib + Alpelisib; first compound 0.06325 µM)	relative viability (Dactolisib + Alpelisib; first compound 0.2 µM)
LK-2	0.238	0.206	0.232	0.229	0.2	0.17	0.167	0.197	0.167	0.184	0.512	0.264	0.597	0.342	0.403	0.934	1.03	0.793	0.526	0.416
NCI-H2126	0.601	0.6	0.689	0.751	0.779	0.816	0.809	0.821	0.806	0.892	0.939	1.02	1.02	0.985	1.08	0.751	0.702	0.639	0.518	0.425
NCI-H3122	0.927	0.917	1.05	0.875	0.996	0.381	0.401	0.436	0.355	0.411	0.923	1.01	1	0.974	1.03	0.792	0.729	0.652	0.486	0.36
NCI-H1975	0.636	0.724	0.804	0.82	0.812	0.649	0.733	0.731	0.638	0.741	0.674	0.614	0.765	0.703	0.81	0.612	0.549	0.396	0.238	0.201
NCI-H1944	0.396	0.389	0.497	0.385	0.425	0.248	0.249	0.24	0.236	0.236	0.455	0.519	0.727	0.389	0.474	0.898	0.796	0.72	0.384	0.279
LU99A		0.346	0.271	0.32	0.329		0.306	0.279	0.286	0.332	0.341	0.54	0.358		0.361	0.483	0.333	0.273	0.242	0.192
NCI-H2347	0.25				0.343	0.492				0.54	0.548	0.659	0.554	0.553	0.578	1.2	1.09	0.927	0.689	0.399
NCI-H2009	0.615	0.591	0.582	0.539	0.59	0.714	0.738	0.805	0.706	0.64						1.21	1.19	1.14	0.676	0.532
COR-L23	0.494	0.65	0.588	0.486	0.656	0.181	0.177	0.22	0.179	0.146						0.8	0.646	0.419	0.199	0.149
